The numbers were not newly measured in patent US20250368687A1, “SHORT SYNTHETIC PEPTIDES AND USES THEREOF IN THE TREATMENT OF ENTEROVIRUS INFECTION” (CITY UNIVERSITY OF HONG KONG, priority 2024, published 2025), which cites them from elsewhere.

The data set relates to p38 MAPK. The settings on record: background statement; cited from earlier work.

Structures are written as SMILES.

For the compound `C[S+]([O-])c1ccc(-c2nc(-c3ccncc3)c(-c3ccc(F)cc3)[nH]2)cc1` (centres unmarked) [SB203580, reference compound], the “secretion of inflammatory factors (such as IL-6, IL-10, and TNF-α)” value is “inhibited”; the viral replication result is on record as “reduced”.
